Target: Vibrio cholerae MARTX toxin cysteine protease domain (CPD) (Vibrio cholerae serotype O1, UniProt Q9KS12)
Format: biochemical
Settings: increasing amounts of InsP6, 2 hrs at 4° C.

Vibrio cholerae MARTX toxin cysteine protease domain (CPD), sequence (Q9KS12 3440-3650 limits assumed): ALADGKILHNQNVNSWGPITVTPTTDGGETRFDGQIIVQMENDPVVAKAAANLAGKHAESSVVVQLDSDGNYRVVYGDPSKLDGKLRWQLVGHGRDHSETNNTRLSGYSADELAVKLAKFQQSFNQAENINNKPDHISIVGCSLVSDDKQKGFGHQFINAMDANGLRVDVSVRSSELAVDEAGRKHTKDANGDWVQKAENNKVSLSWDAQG

O=P(O)(O)OC1C(OP(=O)(O)O)C(OP(=O)(O)O)C(OP(=O)(O)O)C(OP(=O)(O)O)C1OP(=O)(O)O (stereo not shown) [InsP6, inositol hexakisphosphate]
release of GFP from Ni2+-NTA agarose beads (CPD autoprocessing): stimulated the release of GFP
